According to article PMC8406801, “Naringenin Inhibits Platelet Activation and Arterial Thrombosis Through Inhibition of Phosphoinositide 3-Kinase and Cyclic Nucleotide Signaling” (Frontiers in Pharmacology, 2021):
Where “and” joins values, the source holds several entries; their conditions need not be identical. Identical values can stand only once.

Legend:
[1] = tested on: Akt Ser473 phosphorylation; assay: Ex vivo immunoblotting of phospho-Akt (Ser473) in ADP-stimulated PRP of treated rats; set-up: species or system rat; conditions: for p-Akt Ser473 / t-Akt (Fold to Control) / p-Akt Ser473 / t-Akt (raw data): ex vivo, Figure 8C
Description: (§1) Male SD rats were randomly divided into 5 groups with 6 rats in each group. […] Sixty minutes after the last sample treatment, blood was drawn from the abdominal aorta of rats into the siliconized vacutainers containing 1:9 (v/v) 3.8% sodium citrate. The collected blood was centrifuged at 100 × g for 10 min at room temperature to obtain PRP. […] The platelet counts of PRP were adjusted to 4×10^8 cells/mL using PPP. PRP was incubated for 5 min at 37°C and then stimulated by ADP (5 μM). The maximum platelet aggregation rate was determined as mentioned above.
(§2) For in vitro platelet aggregation, aliquots of washed platelets were preincubated with vehicle or various concentrations of naringenin for 5 min and stimulated with ADP (10 μmol/L) under stirring at 37°C for 5 min. For ex vivo platelet aggregation, PRP was incubated at 37°C for 5 min and stimulated with ADP (5 μmol/L) under stirring at 37 °C. The platelet aggregation was terminated by adding ethylenediaminetetraacetic acid (EDTA; 10 mM). Total protein was prepared using RIPA lysis buffer and protein content was determined by bicinchoninic acid (BCA) protein assay kit. Equal amounts of platelet proteins (30 μg) were separated on 10% SDS polyacrylamide gel electrophoresis (SDS-PAGE) and then transferred to poly vinylidene difluoride (PVDF) membranes and subjected to western blot. Blots were blocked with TBS-Tween 20 containing 5% BSA and probed with primary antibodies diluted in blocking solution at 4°C overnight followed by incubation with the corresponding HRP secondary antibodies. The protein bands were visualized using enhanced chemiluminescence (ECL).
(§3) Blood was collected and PRP was obtained after the last treatment. Platelet aggregation was induced by ADP (5 μmol/L) (A). Data are expressed as means ± SD (n = 6). After ADP stimulation, platelet proteins were then extracted and analyzed by immunoblotting using PI3Kp110β antibody (B) and phospho-specific antibodies such as Akt^Ser473 (C), Akt^Thr308 (D) and ERK1/2^Thr202/Tyr204 (E). Total level of GAPDH was measured on each sample as a loading control. The blots shown are representative of three separate experiments. The relative protein expression levels were quantified by ImageJ 1.47v software. The level of relative protein expression obtained with vehicle control was taken as 1. R represents the level of relative protein expression in resting platelets. Data are expressed as means ± SD (n = 3). *p < 0.05, **p < 0.01, ***p < 0.001 compared with the vehicle control group (Con).
(§4) To further investigate the antiplatelet mechanisms of naringenin ex vivo, several signaling molecules such as PI3Kp110β, Akt and ERK were detected. After oral administration of naringenin (200, 400, and 800 mg/kg) to rats for 7 days, rat PRP was prepared and stimulated by ADP (5 μmol/L), and platelets were lysed to determine protein phosphorylation levels using western blot.

PI3Kp110β = assay: Ex vivo immunoblotting of PI3Kp110β in ADP-stimulated PRP of treated rats; set-up: species or system rat; conditions: for PI3Kp110β / GAPDH (Fold to Control) / PI3Kp110β / GAPDH (raw data): ex vivo, Figure 8B
Description: as §1, §2, §3, §4

PRP of treated rats = assay: Ex vivo ADP (5 μM)-induced platelet aggregation after oral dosing; type: in vivo, rat; conditions: for Aggregation (%): ex vivo, Figure 8A; for ADP-induced platelet aggregation ex vivo: rats, ADP 5 μM, mean ± SD, n = 6, vehicle 63.2 ± 3.6
Description: as §1

washed rat platelets [2] = assay: ADP (10 μM)-induced aggregation of washed rat platelets; type: cell-based; conditions: for ADP-induced platelet aggregation (control group taken as 100%): mean ± SD, n = 6
Description: Platelet-rich plasma (PRP) was obtained, and after the addition of 100 ng/ml PGE1, platelets were pelleted at 900 × g for 10 min. […] Washed platelets were preincubated with vehicle (0.4% dimethyl sulfoxide) or various concentrations of naringenin in the presence of 2 mM CaCl2 for 5 min at 37°C, and then further stimulated by ADP (10 μM), thrombin (0.2 U/mL) or collagen (2 μg/ml). The maximum platelet aggregation rate was detected within 5 min with continuous stirring.
Platelet aggregation was induced by ADP using washed platelets and PRP. Washed platelets were preincubated with vehicle (containing 0.4% DMSO) or different doses (100, 200, 400, and 800 μM) of naringenin or naringin for 5 min before activation with ADP (10 μM) for 5 min.
FIGURE 1 Effects of naringenin and naringin on platelet aggregation. Chemical structure of naringin (A) and naringenin (B). The effects of naringin (C) or naringenin (D) on PRP were measured following stimulation with 10 μmol/L ADP. Rat washed platelet aggregation performed with or without different concentrations of naringin (E) or naringenin (F) was recorded after stimulation with 10 μmol/L ADP. Similarly, Washed platelet aggregation performed with vehicle or various concentrations of naringenin was recorded after stimulation with 0.2 U/mL thrombin (G) or 2 μg/ml collagen (H). WP represents washed platelets. Data are expressed as means ± SD (n = 6), the level of aggregation obtained at 5 min with vehicle-treated samples (0 μM) was taken as 100%. *p < 0.05, **p < 0.01, ***p < 0.001 compared with the vehicle control group.

washed rat platelets [3] = assay: ADP (5 μM)-stimulated aggregation of washed platelets (Figure S1); type: cell-based; conditions: 200, 400 and 800 μM similar efficacy
Excerpt: Platelet aggregation was induced by ADP using washed platelets and PRP. […]
(1 picture or pasted object on this page, not shown here)

washed rat platelets [4] = assay: ADP (10 μM)-induced aggregation of washed rat platelets; type: cell-based; conditions: H89+Naringenin (200 μM)+ADP (10 μM); Figure 7E
[5] = rats, oral 200, 400, and 800 mg/kg for 7 days, ADP 5 μmol/L

SMILES: O=C1C[C@@H](c2ccc(O)cc2)Oc2cc(O)cc(O)c21 [Naringenin]
- p-Akt Ser473 / t-Akt (Fold to Control) ([1]; naringenin 200mg/kg): 0.3581 and 0.2265 and 0.3338
- p-Akt Ser473 / t-Akt (raw data) ([1]; naringenin 200mg/kg): 0.3980 and 0.2517 and 0.3710
- p-Akt Ser473 / t-Akt (Fold to Control) ([1]; naringenin 400mg/kg): 0.1353 and 0.0873 and 0.1300
- p-Akt Ser473 / t-Akt (raw data) ([1]; naringenin 400mg/kg): 0.1504 and 0.0970 and 0.1445
- p-Akt Ser473 / t-Akt (Fold to Control) ([1]; naringenin 800mg/kg): 0.1415 and 0.0868 and 0.1240
- p-Akt Ser473 / t-Akt (raw data) ([1]; naringenin 800mg/kg): 0.1573 and 0.0965 and 0.1378
- phosphorylation of Akt at Ser473 in rat PRP ex vivo [1, 5]: significantly suppressed
- PI3Kp110β / GAPDH (Fold to Control) (PI3Kp110β; naringenin 200mg/kg): 0.9111 and 0.9256 and 1.0697
- PI3Kp110β / GAPDH (raw data) (PI3Kp110β; naringenin 200mg/kg): 0.4465 and 0.4536 and 0.5241
- PI3Kp110β / GAPDH (Fold to Control) (PI3Kp110β; naringenin 400mg/kg): 0.7818 and 0.8725 and 1.0518
- PI3Kp110β / GAPDH (raw data) (PI3Kp110β; naringenin 400mg/kg): 0.3831 and 0.4275 and 0.5154
- PI3Kp110β / GAPDH (Fold to Control) (PI3Kp110β; naringenin 800mg/kg): 0.6930 and 0.8263 and 0.7645
- PI3Kp110β / GAPDH (raw data) (PI3Kp110β; naringenin 800mg/kg): 0.3396 and 0.4049 and 0.3746
- expression of PI3Kp110β in rat PRP ex vivo (PI3Kp110β; [5]): only modest changes
- Aggregation (%) (PRP of treated rats; naringenin 200mg/kg): 44.3% and 43.6% and 49.2% and 46.7% and 39.1% and 43%
- Aggregation (%) (PRP of treated rats; naringenin 400mg/kg): 34.4% and 37.3% and 35.4% and 28% and 25.8% and 22.9%
- Aggregation (%) (PRP of treated rats; naringenin 800mg/kg): 12.7% and 17.8% and 16.5% and 21.5% and 19.3% and 11.6%
- ADP-induced platelet aggregation ex vivo (PRP of treated rats; oral 200 mg/kg once a day for 7 days): 44.3 ± 3.4%
- ADP-induced platelet aggregation ex vivo (PRP of treated rats; oral 400 mg/kg once a day for 7 days): 30.6 ± 5.9%
- ADP-induced platelet aggregation ex vivo (PRP of treated rats; oral 800 mg/kg once a day for 7 days): 16.6 ± 3.8%
- IC50 (washed rat platelets [2]; ADP 10 μM): ~118 µM
- reduction of aggregation of washed platelets (washed rat platelets [2]; ADP-induced, 100 μM): 45%
- Aggregation (%) (washed rat platelets [2]; Figure 5A: washed platelets, ADP 10 μM, naringenin 200 μM alone, single replicates): 38.3% and 37.5% and 34.7% and 44.0% and 29.6% and 42.4%
- IC50 (washed rat platelets [2]; Rattus norvegicus, Platelet, ADP 10 μM): 118 ± 10.4 µM
- activity at 100 µM (washed rat platelets [2]; Rattus norvegicus, Platelet, washed platelets, ADP 10 μmol/L, compound 100 μM, single replicates, read-out: Aggregation % of control): 50.4%
- activity at 400 µM (washed rat platelets [2]; Rattus norvegicus, Platelet, washed platelets, ADP 10 μmol/L, compound 400 μM, single replicates, read-out: Aggregation % of control): 12%
- activity at 800 µM (washed rat platelets [2]; Rattus norvegicus, Platelet, washed platelets, ADP 10 μmol/L, compound 800 μM, single replicates, read-out: Aggregation % of control): 6.7%
- level of inhibition relative to naringin (washed rat platelets [2]; washed platelets, ADP 10 μM, 800 μM): 11 fold
- ADP-induced platelet aggregation (control group taken as 100%) (washed rat platelets [2]; washed platelets, ADP 10 μM, compound 100 μM): 54.5 ± 6.2%
- ADP-induced platelet aggregation (control group taken as 100%) (washed rat platelets [2]; washed platelets, ADP 10 μM, compound 800 μM): 6.3 ± 1.7%
- Aggregation (%) (washed rat platelets [2]; washed platelets, ADP 10 μmol/L, compound 100 μM, raw data, single replicates): 35.6% and 34.2% and 43.2% and 37.5% and 36.0% and 44.7%
- Aggregation % of control (washed rat platelets [2]; washed platelets, ADP 10 μmol/L, compound 100 μM, single replicates, 100 µM): 48.4 % of control and 61.1 % of control and 53.1 % of control and 51.0 % of control and 63.3 % of control
- Aggregation (%) (washed rat platelets [2]; washed platelets, ADP 10 μmol/L, compound 200 μM, raw data, single replicates): 24.7% and 26.3% and 34.7% and 21.2% and 13.9% and 29.4%
- Aggregation % of control (washed rat platelets [2]; washed platelets, ADP 10 μmol/L, compound 200 μM, single replicates, 200 µM): 35.0 % of control and 37.2 % of control and 49.1 % of control and 30.0 % of control and 19.7 % of control and 41.6 % of control
- Aggregation (%) (washed rat platelets [2]; washed platelets, ADP 10 μmol/L, compound 400 μM, raw data, single replicates): 8.5% and 6.2% and 6.9% and 8.1% and 8.7% and 7.6%
- Aggregation % of control (washed rat platelets [2]; washed platelets, ADP 10 μmol/L, compound 400 μM, single replicates, 400 µM): 8.8 % of control and 9.8 % of control and 11.5 % of control and 12.3 % of control and 10.8 % of control
- Aggregation (%) (washed rat platelets [2]; washed platelets, ADP 10 μmol/L, compound 800 μM, raw data, single replicates): 4.7% and 3.7% and 5.6% and 6.1% and 3.6% and 3.1%
- Aggregation % of control (washed rat platelets [2]; washed platelets, ADP 10 μmol/L, compound 800 μM, single replicates, 800 µM): 5.2 % of control and 7.9 % of control and 8.6 % of control and 5.1 % of control and 4.4 % of control
- effect on ADP (5 μM)-stimulated platelet aggregation (washed rat platelets [3]): significant levels of inhibition
- Aggregation (%) (washed rat platelets [4]): 25.0% and 17.3% and 32.6% and 33.0% and 28.0% and 21.0%
